Test results from patent US4064128A, “N,[3-(4'-fluorobenzoyl)propyl]-N2 -(2'-chloro-5'-methylphenoxy)ethyl]p i” (Kali-Chemie Aktiengesellschaft, priority 1971, dated 1977).
pIC50: −log10 of the molar value. “Also recorded” adds a separate entry of the source.

Experiments:
[1] = Acute oral toxicity (LD50 p.o.); type: in vivo; conditions: for LD50 at 168 h: mouse, in vivo, po, mice, single dose, 7 days survival period; for toxicity (in words): compared with the other tested compounds
Description: Test 1. Acute oral toxicity
The acute oral toxicity (LD50 p.o.) was determined by peroral administration of a single dose of the compound to fasting white male mice.
The lethal dose in terms of milligrams of the compound per kilogram of body weight of the tested animals was computed in accordance with the method described by J. P. Litchfeld and F. Wilcoxon in Journal of Pharmacology and Experimental Therapeutics, vol. 96, page 99 (1949).
The doses that are referred to herein were all computed in accordance with the said method. The results in this test were based upon a survival period of 7 days.

[2] = system: hexobarbital sleep duration; test: Sleep prolongation test (hexobarbital); type: in vivo, female mice; conditions: for ED (4-fold prolongation): Mus musculus, po, dose p.o. 30 min before 65 mg/kg i.v. hexobarbital, mice, read-out: Fourfold prolongation of hexobarbital sleep duration; for sedative effect (in words), sleep prolongation and aggression test: prolongation of hexobarbital sleep duration and aggression test
Description: Test 2. Sleep prolongation test
In this test a dose of the test compound is first administered perorally to female mice. After an interval of 30 minutes a dose of 65 milligrams of hexobarbital per kilogram of body weight of the animal is administered intravenously to the mice. The length of the period after administration of the hexabarbital during which the mouse remains sleeping on its side before turning over onto its abdomen, is then noted.

[3] = system: aggression induced by clonidine; test: Inhibition of aggression induced by clonidine (Morpurgo); type: in vivo; conditions: Mus musculus, ip, 30 min before 46.4 mg/kg i.p. clonidine, mice; read-out: Aggression test (Morpurgo), ED50
Description: Test 3. Inhibition of aggression induced by clonidine
This test was described by C. Morpurgo in European Journal of Pharmacology,vol. […] In this test 12 mice are separated into pairs and each mouse is injected intraperitoneally with a dose of the test compound. […] Clonidine at this dosage level produces an aggressive behaviour in the mice which expresses itself in violent bouts of fighting and biting. The mice are observed and their behaviour scored in accordance with a point system. The mice are observed during a period of 30 minutes and each pair of mice scores 2 points if, during any 10 minute interval, two or more encounters or bouts had occurred. Six pairs of mice accordingly cannot score more than a total of 36 points during the 30 minute period, which is rated 100%.

phenyl quinone writhing = test: Analgesic effect, Writhing test (phenyl quinone); type: in vivo, male albino mice (NMRI strain); conditions: for ED (effect equal to amidopyrine 100 mg/kg): Mus musculus, oral dose equivalent to 100 mg/kg oral amidopyrine, phenyl quinone 1.5 mg/kg, read-out: Writhing-test (dose producing same effect as amidopyrine)
Description: The analygesic effect of the substance was determined by the Writhing test. The substances to be tested were administered to male albino mice (NMRI strain) in accordance with the method described by E. Sigmund, R. Cadmus and G. Lu in Proc. Soc. exp. […] After 30 minutes, 1.5 mg. of phenyl quinone per kg. of body weight were administered to the test animals through the abdominal cavity. Amidopyrine was orally administered as comparison substance in a dose of 100 mg/kg. The figures set out in Table 2 indicate the oral doses of the compounds according to the invention in mg/kg which produce the same effect as the dose of the comparison substance.

ileum portion = test: Antihistamine action, Magnus procedure; parameters: species or system Pirbright guinea pigs; conditions: Cavia porcellus, guinea pig ileum, read-out: Antihistamine action ED50
Text: Test 5. Antihistamine action
The ED50 has been given in mol/1.

[4] = listed as compound of the invention

Question: For Cc1cc(Cl)ccc1OCCN1CCN(CCCC(=O)c2ccc(F)cc2)CC1 [4-chloro-2-methylphenyl], which LD50 at 168 h [1] is on record?
Answer: The LD50 at 168 h was 1000 mg/kg.

Question: And the ED (4-fold prolongation) [2]?
Answer: The ED (4-fold prolongation) was 100 mg/kg.

Question: And the ED50 [3]?
Answer: Its ED50 is 2.5 mg/kg.

Question: And the ED (effect equal to amidopyrine 100 mg/kg) (phenyl quinone writhing)?
Answer: Its ED (effect equal to amidopyrine 100 mg/kg) is 68.1 mg/kg.

Question: And the pIC50 (ileum portion)?
Answer: The pIC50 was 7.77.

Question: What does the source list for O=C(CCCN1CCN(Cc2ccc(F)cc2)CC1)c1ccc(F)cc1 [fluorobenzyl, no O-bridge, reference compound]?
Answer: LD50 at 168 h [1]: 431 mg/kg; ED (4-fold prolongation) [2]: 18.5 mg/kg; ED50 [3]: 7.6 mg/kg; ED (effect equal to amidopyrine 100 mg/kg) (phenyl quinone writhing): 49.5 mg/kg; pIC50 (ileum portion): 6.92

Question: With O=C(CCCN1CCN(CCOc2c(Cl)cccc2Cl)CC1)c1ccc(F)cc1 [2,6-dichlorophenyl, reference compound] as the molecule, how does the LD50 at 168 h [1] read?
Answer: The LD50 at 168 h was 1020 mg/kg.

Question: And the ED (4-fold prolongation) [2]?
Answer: The ED (4-fold prolongation) was 117 mg/kg.

Question: What about the ED50 [3] of the same molecule?
Answer: The ED50 was 7.4 mg/kg.

Question: What does the source list for O=C(CCCN1CCN(CCOc2ccc(Cl)cc2)CC1)c1ccc(F)cc1 [4-chlorophenyl, reference compound]?
Answer: LD50 at 168 h [1]: 336 mg/kg; ED (4-fold prolongation) [2]: 21.5 mg/kg; ED50 [3]: 6 mg/kg; ED (effect equal to amidopyrine 100 mg/kg) (phenyl quinone writhing): 5.5 mg/kg; pIC50 (ileum portion): 8.05

Question: Which LD50 at 168 h [1] does the source give for O=C(CCCN1CCN(CCOc2ccc([N+](=O)[O-])cc2)CC1)c1ccc(F)cc1 [4-nitrophenyl] here?
Answer: Its LD50 at 168 h is 215 mg/kg.

Question: And the ED (4-fold prolongation) [2]?
Answer: The ED (4-fold prolongation) was 8 mg/kg.

Question: What about the ED50 [3] of the same molecule?
Answer: The ED50 was 0.7 mg/kg.

Question: What about the ED (effect equal to amidopyrine 100 mg/kg) (phenyl quinone writhing) of the same molecule?
Answer: The ED (effect equal to amidopyrine 100 mg/kg) was 1.8 mg/kg.

Question: And the pIC50 (ileum portion)?
Answer: The pIC50 was 8.40.

Question: For Cc1cc(C)cc(OCCN2CCN(CCCC(=O)c3ccc(F)cc3)CC2)c1 [3,5-dimethylphenyl], which “toxicity (in words)” value [1] is on record?
Answer: The value was “even a higher toxicity”.

Question: What about the LD50 at 168 h [1] of the same molecule?
Answer: Its LD50 at 168 h is 297 mg/kg.

Question: What about the ED (4-fold prolongation) [2] of the same molecule?
Answer: Its ED (4-fold prolongation) is 68 mg/kg.

Question: What about the “sedative effect (in words), sleep prolongation and aggression test” value [2] of the same molecule?
Answer: The value was “less satisfactory sedative effect”.

Question: What about the ED (effect equal to amidopyrine 100 mg/kg) (phenyl quinone writhing) of the same molecule?
Answer: The ED (effect equal to amidopyrine 100 mg/kg) was 6.9 mg/kg.

Question: What does the source list for Cc1ccc(Cl)c(OCCN2CCN(CCCC(=O)c3ccc(F)cc3)CC2)c1 [2-chloro-5-methylphenyl]?
Answer: toxicity (in words) [1, 4]: very substantially lower than that of 4-nitrophenyl; also recorded: low toxicity; LD50 at 168 h [1]: 464 mg/kg; ED (4-fold prolongation) [2]: 7 mg/kg; sedative effect (in words), sleep prolongation and aggression test [2]: substantially better results in regard to sedative effects; sedative effect (in words), sleep prolongation and aggression test [2, 4]: the same or better than that of the 4-nitrophenyl compound; ED50 [3]: 0.35 mg/kg; ED (effect equal to amidopyrine 100 mg/kg) (phenyl quinone writhing): 6 mg/kg; analgesic effect (in words) (phenyl quinone writhing; Writhing test): good analgesic effects; pIC50 (ileum portion): 8.15

Question: For COc1ccc(CN2CCN(CCCC(=O)c3ccc(F)cc3)CC2)cc1 [methoxyphenyl, no O-bridge, reference compound], which LD50 at 168 h [1] is on record?
Answer: The LD50 at 168 h was 431 mg/kg.

Question: What about the ED (4-fold prolongation) [2] of the same molecule?
Answer: The ED (4-fold prolongation) was 33.9 mg/kg.

Question: What about the ED50 [3] of the same molecule?
Answer: The ED50 was 4.7 mg/kg.

Question: What about the ED (effect equal to amidopyrine 100 mg/kg) (phenyl quinone writhing) of the same molecule?
Answer: Its ED (effect equal to amidopyrine 100 mg/kg) is 62 mg/kg.

Question: What about the pIC50 (ileum portion) of the same molecule?
Answer: Its pIC50 is 6.82.

Question: Which results are given for Cc1cccc(OCCN2CCN(CCCC(=O)c3ccc(F)cc3)CC2)c1C [2,3-dimethylphenyl]?
Answer: LD50 at 168 h [1]: 1040 mg/kg; ED (4-fold prolongation) [2]: 120 mg/kg; ED50 [3]: 4.6 mg/kg; ED (effect equal to amidopyrine 100 mg/kg) (phenyl quinone writhing): 23 mg/kg

Question: For Cc1ccc(C)c(OCCN2CCN(CCCC(=O)c3ccc(F)cc3)CC2)c1 [2,5-dimethylphenyl], which LD50 at 168 h [1] is on record?
Answer: The LD50 at 168 h was 1240 mg/kg.

Question: What about the ED (4-fold prolongation) [2] of the same molecule?
Answer: The ED (4-fold prolongation) was 100 mg/kg.

Question: What about the ED (effect equal to amidopyrine 100 mg/kg) (phenyl quinone writhing) of the same molecule?
Answer: Its ED (effect equal to amidopyrine 100 mg/kg) is 17 mg/kg.
